Measurements from patent publication EP0214303A1, “DISULFIDE COMPOUNDS AND ANTINEOPLASTIC AGENTS” (priority 1985, dated 1986).

What was measured:
peripheral leukocytes = assay: Effect on the peripheral leucocytes number (WBC4000); assay type: in vivo, ddY mice; conditions: statement in words on Table 2 (image); comparison with control compounds A, B, C, D where stated; intraperitoneal, 4 days after administration
Procedure: (4) Effect on the peripheral leucocytes number: • Sarcoma 180 solid tumor cells […] were subcutaneously implanted into the right axilla of each mouse (body weight 20 ±2 g) of a group consisting of 5 male mice (ddY strain). 24 hours after implantation, a test compound was intraperitoneally administered to each animal. 4 days after the administration, blood (each 0.02 ml) was collected from the suborbital plexus vein of each tumor-carrying animal. The collected sample of blood was dispersed in 9.98 ml of Cell-Kit Seven solution. One drop of saponin solution was added to the sample to dissolve erythrocytes and then a microcell counter was used to count the number of leucocytes. On graph paper, the number of leucocytes was indicated by an arithmetic scale on the longitudinal axis and the dose of the test compound was indicated by a logarithmic scale on the lateral axis. The relationship between the number of peripheral leucocytes and the dose of the test compound was plotted and the dose (i.e., WBC4000) corresponding to 4000 peripheral leucocytes/mm3 (about half the number of leucocytes of normal mice) was obtained.

[1] = pH 7

Row | Structure (SMILES) | WBC4000 (dosage reducing the peripheral leukocytes to 4000/mm3) (peripheral leukocytes) | also measured
1 | COC12C(COC(N)=O)C3=C(C(=O)C(C)=C(NCCCCSSCCCCNC4=C(C)C(=O)C5=C(C4=O)C(COC(N)=O)C4(OC)C6NC6CN54)C3=O)N1CC1NC12 (stereo not drawn) [Compound 4, 7-N,7'-N'-(dithioditetramethylene) dimitomycin C] | considerably increased | –
2 | CO[C@@]12[C@H](COC(N)=O)C3=C(C(=O)C(C)=C(NCCCCSSC[C@H](N)C(=O)NCC(=O)O)C3=O)N1C[C@@H]1N[C@@H]12 [Compound 27] | – | solubility: > 39 mg/mL
3 | COC12C(COC(N)=O)C3=C(C(=O)C(C)=C(NCCCCSSCC(O)CO)C3=O)N1CC1NC12 (stereo not drawn) [Compound 26, 7-N-[4-(2,3-dihydroxypropyldithio)butyl] mitomycin C] | considerably increased | –
4 | COC12C(COC(N)=O)C3=C(C(=O)C(C)=C(NCCCSSCCCNC4=C(C)C(=O)C5=C(C4=O)C(COC(N)=O)C4(OC)C6NC6CN54)C3=O)N1CC1NC12 (stereo not drawn) [Compound 1, 7-N,7'-N'-(dithioditrimethylene) dimitomycin C] | considerably increased | –
5 | COC12C(COC(N)=O)C3=C(C(=O)C(C)=C(NCCCCCCSSCCCCCCNC4=C(C)C(=O)C5=C(C4=O)C(COC(N)=O)C4(OC)C6NC6CN54)C3=O)N1CC1NC12 (stereo not drawn) [Compound 8, 7-N,7'-N'-(dithiodihexamethylene) dimitomycin C] | considerably increased | –
6 | COC12C(COC(N)=O)C3=C(C(=O)C(C)=C(NCCCCCCCCSSCCCCCCCCNC4=C(C)C(=O)C5=C(C4=O)C(COC(N)=O)C4(OC)C6NC6CN54)C3=O)N1CC1NC12 (stereo not drawn) [Compound 10, 7-N,7'-N'-(dithiodioctamethylene) dimitomycin C] | – | solubility (result in words) [1]: scarcely soluble in water
